Series [1] has as its system SARS-CoV-2. The settings on record: 24 h, pH 7.4.
The subject of series [2] is parainfluenza virus 3. As to conditions: 24 h, pH 7.4.
Series [3] deals with MERS-CoV S protein (Middle East respiratory syndrome-related coronavirus, UniProt K9N5Q8).
The subject of series [4] is MERS-CoV.
Series [5] deals with endosomal acidification in MDCK cells. The series is classed as cell-based, canine.
Series [6] concerns H1N1 virus.
Series [7] deals with SARS-CoV-2.
In series [8] the test system is A(H7N9) virus.
Series [9] relates to SARS-CoV-2. The source holds these as a separate data set.
The test system of series [10] is rhinovirus. The series is classed as binding.
The subject of series [11] is SARS-CoV.
For series [12], the system named is SARS-CoV-2. The series is classed as binding.
In series [13] the test system is H1N1 virus. This is another data set of the same source.
Series [14] deals with H1N1 virus. The source holds these as a separate data set.
Series [15] can be described thus: physchem. As to conditions: water.
Series [16] has as its system virus–host endosomal acidification in H1N1-infected MDCK cells. The series is classed as cell-based, canine.
Series [17] has as its target H1N1 HA1 protein (Influenza A virus, UniProt C3W5S1).
The subject of series [18] is rhinovirus.

Converted amounts (≈) assume the structure as drawn. Where a SMILES comes first, the peptide text is derived from it.

3 compounds from publication PMC7447754 (Nature Communications, 2020) can be followed below.

MERS-CoV S protein, sequence (K9N5Q8 18-1353 limits assumed): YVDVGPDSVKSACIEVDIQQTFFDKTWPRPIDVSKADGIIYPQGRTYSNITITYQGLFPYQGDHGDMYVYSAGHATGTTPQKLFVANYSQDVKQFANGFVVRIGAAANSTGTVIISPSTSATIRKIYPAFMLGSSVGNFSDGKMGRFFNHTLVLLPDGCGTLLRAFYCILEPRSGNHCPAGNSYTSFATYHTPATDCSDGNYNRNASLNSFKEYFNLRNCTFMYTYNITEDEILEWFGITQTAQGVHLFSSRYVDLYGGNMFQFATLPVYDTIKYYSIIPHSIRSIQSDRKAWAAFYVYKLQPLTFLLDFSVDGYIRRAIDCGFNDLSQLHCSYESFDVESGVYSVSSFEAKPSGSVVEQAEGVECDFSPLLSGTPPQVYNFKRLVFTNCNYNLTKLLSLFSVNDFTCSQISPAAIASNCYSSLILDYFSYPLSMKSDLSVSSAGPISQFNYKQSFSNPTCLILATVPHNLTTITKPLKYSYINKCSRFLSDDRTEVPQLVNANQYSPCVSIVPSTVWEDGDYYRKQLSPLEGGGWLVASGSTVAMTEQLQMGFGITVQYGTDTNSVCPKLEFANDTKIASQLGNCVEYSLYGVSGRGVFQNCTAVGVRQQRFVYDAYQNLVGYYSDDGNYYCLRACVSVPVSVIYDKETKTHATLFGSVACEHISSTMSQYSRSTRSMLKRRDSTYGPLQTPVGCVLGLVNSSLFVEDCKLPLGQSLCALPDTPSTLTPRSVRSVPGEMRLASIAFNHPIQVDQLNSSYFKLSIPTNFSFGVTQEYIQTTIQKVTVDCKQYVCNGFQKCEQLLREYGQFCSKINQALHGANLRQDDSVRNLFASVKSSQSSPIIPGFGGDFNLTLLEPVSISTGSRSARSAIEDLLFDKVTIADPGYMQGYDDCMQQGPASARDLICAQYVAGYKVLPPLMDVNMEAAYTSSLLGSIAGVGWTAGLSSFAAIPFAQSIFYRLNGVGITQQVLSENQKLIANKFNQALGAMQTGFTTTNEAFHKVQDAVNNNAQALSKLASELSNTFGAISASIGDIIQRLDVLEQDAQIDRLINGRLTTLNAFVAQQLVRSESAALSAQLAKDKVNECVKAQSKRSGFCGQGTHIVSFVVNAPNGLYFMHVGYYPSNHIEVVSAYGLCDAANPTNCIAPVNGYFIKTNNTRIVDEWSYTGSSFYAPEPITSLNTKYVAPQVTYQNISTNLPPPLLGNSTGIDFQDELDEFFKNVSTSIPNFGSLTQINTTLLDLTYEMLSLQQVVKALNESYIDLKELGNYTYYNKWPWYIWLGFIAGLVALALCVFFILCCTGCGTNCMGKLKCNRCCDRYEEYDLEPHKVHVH
H1N1 HA1 protein, sequence (C3W5S1 18-344 limits assumed): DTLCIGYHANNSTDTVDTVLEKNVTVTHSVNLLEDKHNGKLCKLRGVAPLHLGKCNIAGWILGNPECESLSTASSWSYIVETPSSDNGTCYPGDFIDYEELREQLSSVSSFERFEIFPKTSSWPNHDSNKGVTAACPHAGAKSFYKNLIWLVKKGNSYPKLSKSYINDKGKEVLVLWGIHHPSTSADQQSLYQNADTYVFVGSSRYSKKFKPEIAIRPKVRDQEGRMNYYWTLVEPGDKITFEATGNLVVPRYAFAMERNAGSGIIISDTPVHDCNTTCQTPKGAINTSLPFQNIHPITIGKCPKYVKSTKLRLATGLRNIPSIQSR

For `CC[C@H](C)[C@H](NC(=O)[C@H](C)NC(=O)CNC(=O)[C@@H](N)CC(N)=O)C(=O)N[C@@H](CS)C(=O)N[C@@H](Cc1c[nH]c2ccccc12)C(=O)NCC(=O)N1CCC[C@H]1C(=O)N[C@@H](CS)C(=O)N1CCC[C@H]1C(=O)N[C@H](C(=O)N[C@@H](C)C(=O)N[C@@H](Cc1ccccc1)C(=O)N[C@@H](CCCNC(=N)N)C(=O)N[C@@H](CCC(N)=O)C(=O)N[C@H](C(=O)NCC(=O)N[C@@H](CC(N)=O)C(=O)N[C@@H](CS)C(=O)NCC(=O)N[C@@H](Cc1c[nH]cn1)C(=O)N[C@@H](Cc1ccccc1)C(=O)N[C@@H](CCCCN)C(=O)N[C@H](C(=O)N[C@@H](CCCNC(=N)N)C(=O)N[C@@H](CS)C(=O)N[C@@H](CS)C(=O)N[C@@H](CCCCN)C(=O)N[C@H](C(=O)N[C@@H](CCCNC(=N)N)C(=O)O)[C@@H](C)CC)C(C)C)[C@@H](C)CC)[C@@H](C)O` [P9, reference compound] (H-NGAICWGPCPTAFRQIGNCGHFKVRCCKIR-OH), in series [1], the “IC50 against SARS-CoV-2” value amounted to 2.4 µg/mL (≈ 0.719 µM). Further, the “IC50 against parainfluenza virus 3” value in [2] is above 25.0 µg/mL.

As to `CC[C@H](C)[C@H](NC(=O)[C@H](C)NC(=O)CNC(=O)[C@@H](N)CC(N)=O)C(=O)N[C@@H](CS)C(=O)N[C@@H](Cc1c[nH]c2ccccc12)C(=O)NCC(=O)N1CCC[C@H]1C(=O)N[C@@H](CS)C(=O)N1CCC[C@H]1C(=O)N[C@H](C(=O)N[C@@H](C)C(=O)N[C@@H](Cc1ccccc1)C(=O)N[C@@H](CCCNC(=N)N)C(=O)N[C@@H](CCC(N)=O)C(=O)N[C@H](C(=O)NCC(=O)N[C@@H](CC(N)=O)C(=O)N[C@@H](CS)C(=O)NCC(=O)N[C@@H](CCCNC(=N)N)C(=O)N[C@@H](Cc1ccccc1)C(=O)N[C@@H](CCCNC(=N)N)C(=O)N[C@H](C(=O)N[C@@H](CCCNC(=N)N)C(=O)N[C@@H](CS)C(=O)N[C@@H](CS)C(=O)N[C@@H](CCCNC(=N)N)C(=O)N[C@H](C(=O)N[C@@H](CCCNC(=N)N)C(=O)O)[C@@H](C)CC)C(C)C)[C@@H](C)CC)[C@@H](C)O` [P9R] (H-NGAICWGPCPTAFRQIGNCGRFRVRCCRIR-OH), the “binding to MERS-CoV S protein” value in series [3] is given as “could also bind”. Further, in series [4], the “inhibition of viral replication, MERS-CoV” value is on record as “more than 100 fold”. The “inhibition of endosomal acidification in live cells” value in series [5] is recorded as “could more significantly inhibit endosomal acidification in live cells than that of P9”. Moreover, the “antiviral activity when cells were pretreated before viral infection” value in [6] is given as “did not show antiviral activity”. The “inhibition of viral replication, SARS-CoV-2” value in series [7] is “more than 100 fold”. For the same compound, the “inhibition of viral replication, A(H7N9) virus” value in [8] is reported as above 20 fold. The “inhibition of viral replication when added after SARS-CoV-2 infection” value in series [9] was “could also significantly inhibit viral replication”. The binding to rhinovirus entry in series [10] is given as “could also bind”. Moreover, the “inhibition of viral replication, SARS-CoV” value in [11] is “more than 100 fold”. For the same compound, the “binding to SARS-CoV-2” value in series [12] is “could efficiently bind”. Moreover, in [13], the “effect on viral attachment” value is on record as “did not affect viral attachment”. In series [1], the “IC50 against SARS-CoV-2” value was determined as 0.9 µg/mL (≈ 0.264 µM). In series [2], the “IC50 against parainfluenza virus 3” value was above 25.0 µg/mL. In [14], the “viral replication after 10,000-fold dilution of virus-peptide mixture” value is recorded as “could significantly inhibit viral replication”. Further, in series [15], the solubility (in general, how much of the substance goes into solution per volume) was above 5000 µg/mL. Moreover, the “inhibition of virus–host endosomal acidification in infected live cells” value in series [16] is on record as “could efficiently inhibit”. Besides, in series [17], the “binding to H1N1 HA1 protein” value is recorded as “could also bind”. Moreover, the “inhibition of viral replication, rhinovirus” value in series [18] was above 20 fold.

As to `CO/C1=C\C(C)=C\[C@@H](C)[C@@H](O)[C@@H](C)C/C(C)=C/C=C/[C@H](OC)[C@@H]([C@@H](C)[C@@H](O)[C@H](C)[C@@]2(O)C[C@@H](O)[C@H](C)[C@@H](C(C)C)O2)OC1=O` [bafilomycin A1, reference compound], the “inhibition of virus–host endosomal acidification in infected live cells” value in series [16] is recorded as “could efficiently inhibit”.
